{
  "source": "ChEMBL document CHEMBL5331124",
  "about": "“Degradation of Hexokinase 2 Blocks Glycolysis and Induces GSDME-Dependent Pyroptosis to Amplify Immunogenic Cell Death for Breast Cancer Therapy” (J Med Chem, 2023)",
  "key": {"[1]": {"assay": "Toxicity in BALB/c mouse implanted with mouse 4T1 cells assessed as effect on corpuscular volume at 50 mg/kg, ip measured after 25 days by routine blood test", "format": "organism-based", "details": "in vivo, 600 h, time 25 day"}, "[2]": {"assay": "Toxicity in BALB/c mouse implanted with mouse 4T1 cells assessed as pathological changes in spleen at 50 mg/kg, ip measured after 25 days by Hematoxylin -eosin staining based analysis", "format": "organism-based", "details": "in vivo, 600 h, time 25 day"}, "[3]": {"system": "4T1", "assay": "Antitumor immunity against mouse 4T1 cells implanted in BALB/c mouse model assessed as downregulation of TGF-beta expression in mouse tumor by ELISA analysis", "format": "functional, cell-based"}, "[4]": {"system": "4T1", "assay": "Antitumor immunity activity against mouse 4T1 cells implanted in BALB/c mouse assessed as increase in proportion of […] positive T cells in tumor by flow cytometry analysis", "format": "functional, cell-based"}, "[5]": {"target": "T1, Hexokinase-2 (Mus musculus) (UniProt O08528)", "T1 sequence (whole entry)": "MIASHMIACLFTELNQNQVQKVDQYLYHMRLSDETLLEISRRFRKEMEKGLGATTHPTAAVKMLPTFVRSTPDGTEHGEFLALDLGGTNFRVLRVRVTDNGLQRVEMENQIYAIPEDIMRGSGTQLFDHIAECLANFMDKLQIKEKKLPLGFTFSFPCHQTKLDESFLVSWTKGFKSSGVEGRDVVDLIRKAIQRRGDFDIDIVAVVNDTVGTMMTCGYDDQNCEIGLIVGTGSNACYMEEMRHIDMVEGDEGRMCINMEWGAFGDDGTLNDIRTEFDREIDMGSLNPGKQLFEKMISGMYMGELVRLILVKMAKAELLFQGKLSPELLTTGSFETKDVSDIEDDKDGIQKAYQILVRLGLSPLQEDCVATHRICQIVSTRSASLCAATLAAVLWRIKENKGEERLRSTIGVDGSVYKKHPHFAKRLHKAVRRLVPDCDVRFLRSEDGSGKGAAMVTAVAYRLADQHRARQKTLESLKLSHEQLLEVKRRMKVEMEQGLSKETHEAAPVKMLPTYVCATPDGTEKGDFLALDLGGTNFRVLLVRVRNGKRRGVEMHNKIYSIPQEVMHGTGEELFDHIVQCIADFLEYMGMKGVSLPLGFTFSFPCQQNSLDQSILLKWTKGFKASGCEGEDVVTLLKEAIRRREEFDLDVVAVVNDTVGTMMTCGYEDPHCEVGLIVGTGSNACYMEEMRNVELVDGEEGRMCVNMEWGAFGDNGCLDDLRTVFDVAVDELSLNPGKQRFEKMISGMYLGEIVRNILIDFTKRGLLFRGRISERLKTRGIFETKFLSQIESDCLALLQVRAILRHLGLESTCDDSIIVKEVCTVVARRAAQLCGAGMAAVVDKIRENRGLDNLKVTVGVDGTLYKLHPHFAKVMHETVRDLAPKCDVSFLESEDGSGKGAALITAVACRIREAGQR", "assay": "Induction of HK2 degradation in mouse 4T1 cells upto 200 uM measured at 12 to 36 hrs", "format": "cell-based", "details": "time 12-36 hrs"}, "[6]": {"assay": "Toxicity in BALB/c mouse implanted with mouse 4T1 cells assessed as effect on platelet count at 50 mg/kg, ip measured after 25 days by routine blood test", "format": "organism-based", "details": "in vivo, 600 h, time 25 day"}, "[7]": {"assay": "Toxicity in BALB/c nude mouse xenografted with human MDA-MB-231 cells assessed as effect on mean corpuscular hemoglobin concentration at 50 mg/kg, ip measured after 30 days by routine blood test", "format": "organism-based", "details": "in vivo, 720 h, time 30 day"}, "[8]": {"system": "4T1", "assay": "Antitumor immunity against mouse 4T1 cells implanted in BALB/c mouse model assessed as downregulation of IL-10 expression in mouse tumor by ELISA analysis", "format": "functional, cell-based"}, "[9]": {"target": "T2, Hexokinase-1 (Homo sapiens) (UniProt P19367)", "T2 sequence (whole entry)": "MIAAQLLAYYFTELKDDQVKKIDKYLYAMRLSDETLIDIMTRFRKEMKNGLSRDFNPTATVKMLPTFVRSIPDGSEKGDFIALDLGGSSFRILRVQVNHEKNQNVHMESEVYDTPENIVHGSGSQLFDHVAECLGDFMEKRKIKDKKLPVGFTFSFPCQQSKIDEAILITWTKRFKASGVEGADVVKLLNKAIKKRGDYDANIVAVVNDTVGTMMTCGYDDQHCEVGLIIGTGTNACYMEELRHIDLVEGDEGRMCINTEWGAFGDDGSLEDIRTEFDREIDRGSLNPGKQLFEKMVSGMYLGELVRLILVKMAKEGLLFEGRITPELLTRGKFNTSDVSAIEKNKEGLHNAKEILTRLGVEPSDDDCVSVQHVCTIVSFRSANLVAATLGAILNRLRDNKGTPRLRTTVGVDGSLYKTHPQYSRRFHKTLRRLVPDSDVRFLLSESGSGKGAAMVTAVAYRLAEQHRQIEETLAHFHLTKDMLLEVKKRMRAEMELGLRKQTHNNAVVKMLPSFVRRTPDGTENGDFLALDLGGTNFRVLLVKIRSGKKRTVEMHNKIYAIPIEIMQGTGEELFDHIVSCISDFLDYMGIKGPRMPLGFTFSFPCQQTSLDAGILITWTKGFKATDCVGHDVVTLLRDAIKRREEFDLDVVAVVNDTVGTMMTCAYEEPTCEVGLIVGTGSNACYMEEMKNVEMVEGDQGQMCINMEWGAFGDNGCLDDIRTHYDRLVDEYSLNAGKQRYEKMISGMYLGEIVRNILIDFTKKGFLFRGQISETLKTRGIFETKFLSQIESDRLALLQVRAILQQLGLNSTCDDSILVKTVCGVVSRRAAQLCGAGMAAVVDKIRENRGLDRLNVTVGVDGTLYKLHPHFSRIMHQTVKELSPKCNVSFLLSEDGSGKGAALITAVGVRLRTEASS", "assay": "Induction of HK1 degradation in human MDA-MB-231 cells at 20 uM measured for 36 hrs by Western blot analysis", "format": "cell-based"}, "[10]": {"system": "4T1", "assay": "Induction of mitochondrial damage in mouse 4T1 cells at 20 uM measured for 36 hrs by Hoechst 33342 staining based confocal fluorescence microscopic analysis", "format": "functional, cell-based"}},
  "note": "Calls of active or inactive are those of the source. The rule behind the calls is not given here.",
  "data": [
    {"smiles": "O=C1CCC(N2C(=O)c3cccc(NCCCCNC(=O)c4nn(Cc5ccc(Cl)cc5Cl)c5ccccc45)c3C2=O)C(=O)N1", "note": "(stereo not given)", "values": [
      {"measurement": "Activity", "setting": "[1]", "value": "Non-Toxic"},
      {"measurement": "Activity", "setting": "[2]", "value": "Non-Toxic"},
      {"measurement": "Activity", "setting": "[3]", "value": "Active"},
      {"measurement": "Activity", "setting": "[4]", "value": "Active"},
      {"measurement": "Activity", "setting": "[5]", "value": "Active"},
      {"measurement": "Activity", "setting": "[6]", "value": "Non-Toxic"},
      {"measurement": "Activity", "setting": "[7]", "value": "Non-Toxic"},
      {"measurement": "Activity", "setting": "[8]", "value": "Active"},
      {"measurement": "Activity", "setting": "[9]", "value": "inactive"},
      {"measurement": "Activity", "setting": "[10]", "value": "Active"}
    ]}
  ]
}
